ChEMBL document CHEMBL3826966, “A chromatography-free isolation of rohitukine from leaves of Dysoxylum binectariferum: Evaluation for in vitro cytotoxicity, Cdk inhibition and physicochemical properties” (Bioorg Med Chem Lett, 2016)

Key:
[1] = molecular target: AMP-activated protein kinase, AMPK (Homo sapiens) (UniProt P54646+O43741+P54619+Q9UGJ0+Q9Y478+Q13131+Q9UGI9); assay: Inhibition of human AMPK assessed as remaining enzyme activity at 50 uM after 30 mins by 33P-ATP filter-binding assay; format: protein-complex assay
[2] = molecular target: Protein kinase C alpha type (Homo sapiens) (UniProt P17252); assay: Inhibition of human PKCalpha (1 to 672 residues) assessed as remaining enzyme activity at 50 uM after 30 mins by 33P-ATP filter-binding assay
[3] = molecular target: Ephrin type-B receptor 3 (Homo sapiens) (UniProt P54753); assay: Inhibition of human EPHB3 (561 to 998 residues) assessed as remaining enzyme activity at 50 uM after 30 mins by 33P-ATP filter-binding assay
[4] = system: HL-60; assay: Induction of apoptosis in human HL60 cells assessed as apoptotic cells at 5 uM (reference value: 1 %); format: functional
[5] = molecular target: Serine/threonine-protein kinase PAK 2 (Homo sapiens) (UniProt Q13177); assay: Inhibition of human PAK2 assessed as remaining enzyme activity at 50 uM after 30 mins by 33P-ATP filter-binding assay
[6] = molecular target: Aurora kinase A (Homo sapiens) (UniProt O14965); assay: Inhibition of human Aurora A (2 to 403 residues) assessed as remaining enzyme activity at 50 uM after 30 mins by 33P-ATP filter-binding assay
[7] = molecular target: Homeodomain-interacting protein kinase 3 (Homo sapiens) (UniProt Q9H422); assay: Inhibition of human HIPK3 (161 to 562 residues) assessed as remaining enzyme activity at 50 uM after 30 mins by 33P-ATP filter-binding assay
[8] = molecular target: Calcium/calmodulin-dependent protein kinase type 1 (Homo sapiens) (UniProt Q14012); assay: Inhibition of human CAMK1 (1 to 541 residues) assessed as remaining enzyme activity at 50 uM after 30 mins by 33P-ATP filter-binding assay
[9] = Cytotoxicity against human DU145 cells assessed as cell growth inhibition after 48 hrs by MTT assay; format: functional; details: DU-145, 48 h
[10] = molecular target: Maternal embryonic leucine zipper kinase (Homo sapiens) (UniProt Q14680); assay: Inhibition of human MELK (2 to 651 residues) assessed as remaining enzyme activity at 50 uM after 30 mins by 33P-ATP filter-binding assay
[11] = molecular target: Mitogen-activated protein kinase 3 (Homo sapiens) (UniProt P27361); assay: Inhibition of human ERK1 (1 to 379) assessed as remaining enzyme activity at 50 uM after 30 mins by 33P-ATP filter-binding assay
[12] = system: ASPC1; assay: Cytotoxicity against human AsPC1 cells assessed as cell growth inhibition after 48 hrs by MTT assay; format: functional; details: ASPC1, 48 h
[13] = molecular target: Serine/threonine-protein kinase BRSK2 (Homo sapiens) (UniProt Q8IWQ3); assay: Inhibition of human BRSK2 (2 to 674residues) assessed as remaining enzyme activity at 50 uM after 30 mins by 33P-ATP filter-binding assay
[14] = molecular target: Serine/threonine-protein kinase pim-3 (Homo sapiens) (UniProt Q86V86); assay: Inhibition of human PIM3 (2 to 326 residues) assessed as remaining enzyme activity at 50 uM after 30 mins by 33P-ATP filter-binding assay
[15] = molecular target: Serine/threonine-protein kinase MARK2 (Homo sapiens) (UniProt Q7KZI7); assay: Inhibition of human MARK2 (2 to 691 residues) assessed as remaining enzyme activity at 50 uM after 30 mins by 33P-ATP filter-binding assay
[16] = Cytotoxicity against human BxPC3 cells assessed as cell growth inhibition after 48 hrs by MTT assay; format: functional; details: BXPC-3, 48 h
[17] = Cytotoxicity against human MIAPaCa2 cells assessed as cell growth inhibition after 48 hrs by MTT assay; format: functional; details: MIA PaCa-2, 48 h
[18] = molecular target: Ephrin type-B receptor 1 (Homo sapiens) (UniProt P54762); assay: Inhibition of human EPHB1 (565 to 984 residues) assessed as remaining enzyme activity at 50 uM after 30 mins by 33P-ATP filter-binding assay
[19] = Distribution coefficient, logD of the compound in water/PBS buffer at pH 7.4 at 25 degC after 20 mins by shake flask method; format: physicochemical
[20] = molecular target: Fibroblast growth factor receptor 1 (Homo sapiens) (UniProt P11362); assay: Inhibition of human FGFR1 (400 to 820 residues) assessed as remaining enzyme activity at 50 uM after 30 mins by 33P-ATP filter-binding assay
[21] = molecular target: Serine/threonine-protein kinase OSR1 (Homo sapiens) (UniProt O95747); assay: Inhibition of human OSR1 assessed as remaining enzyme activity at 50 uM after 30 mins by 33P-ATP filter-binding assay
[22] = molecular target: Ephrin type-A receptor 2 (Homo sapiens) (UniProt P29317); assay: Inhibition of human EPHA2 (591 to 976 residues) assessed as remaining enzyme activity at 50 uM after 30 mins by 33P-ATP filter-binding assay
[23] = Cytotoxicity against human Hs578T cells assessed as cell growth inhibition after 48 hrs by MTT assay; format: functional; details: Hs-578T
[24] = molecular target: Interleukin-1 receptor-associated kinase 1 (Homo sapiens) (UniProt P51617); assay: Inhibition of human IRAK1 (1 to 712 residues) assessed as remaining enzyme activity at 50 uM after 30 mins by 33P-ATP filter-binding assay
[25] = molecular target: Tyrosine-protein kinase JAK2 (Homo sapiens) (UniProt O60674); assay: Inhibition of human JAK2 assessed as remaining enzyme activity at 50 uM after 30 mins by 33P-ATP filter-binding assay
[26] = molecular target: Serine/threonine-protein kinase PAK 5 (Homo sapiens) (UniProt Q9P286); assay: Inhibition of human PAK5 (2 to 719 residues) assessed as remaining enzyme activity at 50 uM after 30 mins by 33P-ATP filter-binding assay

Sequence of Calcium/calmodulin-dependent protein kinase type 1 (Homo sapiens) (Q14012 whole entry, looked up, the tested form may be a part): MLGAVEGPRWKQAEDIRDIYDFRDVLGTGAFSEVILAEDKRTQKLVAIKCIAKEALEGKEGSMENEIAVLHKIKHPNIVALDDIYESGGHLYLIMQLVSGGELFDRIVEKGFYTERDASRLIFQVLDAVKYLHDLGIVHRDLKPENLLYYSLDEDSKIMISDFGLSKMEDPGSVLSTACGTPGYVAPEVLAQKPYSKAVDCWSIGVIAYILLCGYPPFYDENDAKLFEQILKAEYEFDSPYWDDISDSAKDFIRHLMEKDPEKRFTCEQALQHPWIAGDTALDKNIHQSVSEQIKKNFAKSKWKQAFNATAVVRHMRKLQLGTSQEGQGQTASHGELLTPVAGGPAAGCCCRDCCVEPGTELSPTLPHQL
Sequence of Ephrin type-B receptor 3 (Homo sapiens) (P54753 whole entry, the tested form may be a part): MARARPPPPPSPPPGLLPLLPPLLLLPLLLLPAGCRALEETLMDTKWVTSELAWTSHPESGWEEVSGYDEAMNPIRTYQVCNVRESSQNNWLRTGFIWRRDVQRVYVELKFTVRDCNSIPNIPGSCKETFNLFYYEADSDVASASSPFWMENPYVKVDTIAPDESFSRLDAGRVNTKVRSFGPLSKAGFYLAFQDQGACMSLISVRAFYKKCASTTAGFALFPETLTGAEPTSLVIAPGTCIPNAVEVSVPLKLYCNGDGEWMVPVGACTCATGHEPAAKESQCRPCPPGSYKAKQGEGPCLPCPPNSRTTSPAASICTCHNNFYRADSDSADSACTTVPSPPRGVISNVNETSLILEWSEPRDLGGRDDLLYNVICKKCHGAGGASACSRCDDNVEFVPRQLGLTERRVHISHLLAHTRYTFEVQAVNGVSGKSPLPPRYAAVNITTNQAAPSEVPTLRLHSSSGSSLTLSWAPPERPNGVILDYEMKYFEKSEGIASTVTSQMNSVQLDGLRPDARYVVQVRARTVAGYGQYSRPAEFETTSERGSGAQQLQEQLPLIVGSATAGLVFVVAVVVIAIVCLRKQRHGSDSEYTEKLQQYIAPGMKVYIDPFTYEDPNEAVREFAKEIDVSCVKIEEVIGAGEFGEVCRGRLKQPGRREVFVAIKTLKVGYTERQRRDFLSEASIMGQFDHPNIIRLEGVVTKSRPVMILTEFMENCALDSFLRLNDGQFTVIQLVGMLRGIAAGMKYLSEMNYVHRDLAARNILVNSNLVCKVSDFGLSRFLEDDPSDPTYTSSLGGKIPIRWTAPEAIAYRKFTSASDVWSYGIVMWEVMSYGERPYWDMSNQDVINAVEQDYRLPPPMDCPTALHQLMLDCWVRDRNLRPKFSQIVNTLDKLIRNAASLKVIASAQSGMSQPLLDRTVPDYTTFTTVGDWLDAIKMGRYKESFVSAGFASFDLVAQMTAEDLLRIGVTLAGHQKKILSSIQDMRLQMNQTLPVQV
Sequence of Ephrin type-B receptor 1 (Homo sapiens) (P54762 whole entry, the tested form may be a part): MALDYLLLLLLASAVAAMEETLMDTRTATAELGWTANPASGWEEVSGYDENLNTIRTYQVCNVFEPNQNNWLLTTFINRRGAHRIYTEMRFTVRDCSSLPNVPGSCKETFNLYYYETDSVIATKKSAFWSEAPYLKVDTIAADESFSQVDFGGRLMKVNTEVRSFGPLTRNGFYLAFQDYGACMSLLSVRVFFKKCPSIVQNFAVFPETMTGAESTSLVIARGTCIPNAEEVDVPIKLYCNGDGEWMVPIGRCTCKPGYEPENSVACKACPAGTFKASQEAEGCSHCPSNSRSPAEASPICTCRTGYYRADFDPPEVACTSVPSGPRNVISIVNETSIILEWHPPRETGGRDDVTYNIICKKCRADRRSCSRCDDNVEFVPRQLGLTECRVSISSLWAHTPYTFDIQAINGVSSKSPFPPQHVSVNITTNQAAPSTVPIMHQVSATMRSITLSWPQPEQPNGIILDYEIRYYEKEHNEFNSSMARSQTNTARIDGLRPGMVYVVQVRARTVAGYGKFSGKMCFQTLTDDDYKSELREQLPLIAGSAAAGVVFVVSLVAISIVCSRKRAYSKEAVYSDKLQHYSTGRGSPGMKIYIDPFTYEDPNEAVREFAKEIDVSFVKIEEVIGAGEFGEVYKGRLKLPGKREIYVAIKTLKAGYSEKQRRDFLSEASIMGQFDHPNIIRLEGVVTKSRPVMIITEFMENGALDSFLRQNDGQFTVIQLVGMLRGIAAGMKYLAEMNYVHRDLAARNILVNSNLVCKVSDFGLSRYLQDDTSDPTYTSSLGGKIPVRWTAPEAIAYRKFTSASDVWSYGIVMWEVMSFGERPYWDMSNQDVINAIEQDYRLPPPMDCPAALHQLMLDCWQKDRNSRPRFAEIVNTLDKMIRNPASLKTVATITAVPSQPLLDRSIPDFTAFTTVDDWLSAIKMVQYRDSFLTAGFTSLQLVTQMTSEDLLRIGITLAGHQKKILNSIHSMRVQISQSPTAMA
Sequence of Serine/threonine-protein kinase BRSK2 (Homo sapiens) (Q8IWQ3 whole entry, the tested form may be a part): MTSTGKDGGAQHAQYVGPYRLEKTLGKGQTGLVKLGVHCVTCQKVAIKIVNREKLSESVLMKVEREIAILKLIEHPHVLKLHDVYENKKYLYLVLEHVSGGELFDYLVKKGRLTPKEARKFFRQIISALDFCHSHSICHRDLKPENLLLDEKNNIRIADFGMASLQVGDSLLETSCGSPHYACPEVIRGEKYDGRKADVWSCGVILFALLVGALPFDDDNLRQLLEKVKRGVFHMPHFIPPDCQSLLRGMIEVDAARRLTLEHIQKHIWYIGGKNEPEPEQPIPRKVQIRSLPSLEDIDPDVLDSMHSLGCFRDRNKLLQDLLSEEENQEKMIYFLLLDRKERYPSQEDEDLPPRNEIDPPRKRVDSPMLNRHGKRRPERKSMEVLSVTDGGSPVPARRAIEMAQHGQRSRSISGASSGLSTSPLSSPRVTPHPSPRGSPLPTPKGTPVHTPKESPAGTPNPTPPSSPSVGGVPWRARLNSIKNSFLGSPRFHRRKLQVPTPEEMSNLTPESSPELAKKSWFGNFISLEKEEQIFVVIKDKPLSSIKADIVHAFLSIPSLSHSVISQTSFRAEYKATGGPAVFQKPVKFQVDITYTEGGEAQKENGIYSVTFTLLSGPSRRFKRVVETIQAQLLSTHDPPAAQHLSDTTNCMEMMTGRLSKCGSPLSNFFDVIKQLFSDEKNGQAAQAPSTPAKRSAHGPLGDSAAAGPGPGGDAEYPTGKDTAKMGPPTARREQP
Sequence of Aurora kinase A (Homo sapiens) (O14965 whole entry, the tested form may be a part): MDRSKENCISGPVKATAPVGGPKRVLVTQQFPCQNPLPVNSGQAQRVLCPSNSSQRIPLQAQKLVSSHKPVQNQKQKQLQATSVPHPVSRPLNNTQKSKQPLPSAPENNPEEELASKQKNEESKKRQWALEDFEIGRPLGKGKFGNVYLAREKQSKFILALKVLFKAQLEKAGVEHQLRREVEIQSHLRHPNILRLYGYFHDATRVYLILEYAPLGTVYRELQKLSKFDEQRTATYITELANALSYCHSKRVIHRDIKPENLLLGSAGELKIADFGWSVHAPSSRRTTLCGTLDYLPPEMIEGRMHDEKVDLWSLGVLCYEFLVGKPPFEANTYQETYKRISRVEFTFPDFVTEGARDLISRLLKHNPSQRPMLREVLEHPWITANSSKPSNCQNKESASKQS
Sequence of Serine/threonine-protein kinase PAK 2 (Homo sapiens) (Q13177 whole entry, the tested form may be a part): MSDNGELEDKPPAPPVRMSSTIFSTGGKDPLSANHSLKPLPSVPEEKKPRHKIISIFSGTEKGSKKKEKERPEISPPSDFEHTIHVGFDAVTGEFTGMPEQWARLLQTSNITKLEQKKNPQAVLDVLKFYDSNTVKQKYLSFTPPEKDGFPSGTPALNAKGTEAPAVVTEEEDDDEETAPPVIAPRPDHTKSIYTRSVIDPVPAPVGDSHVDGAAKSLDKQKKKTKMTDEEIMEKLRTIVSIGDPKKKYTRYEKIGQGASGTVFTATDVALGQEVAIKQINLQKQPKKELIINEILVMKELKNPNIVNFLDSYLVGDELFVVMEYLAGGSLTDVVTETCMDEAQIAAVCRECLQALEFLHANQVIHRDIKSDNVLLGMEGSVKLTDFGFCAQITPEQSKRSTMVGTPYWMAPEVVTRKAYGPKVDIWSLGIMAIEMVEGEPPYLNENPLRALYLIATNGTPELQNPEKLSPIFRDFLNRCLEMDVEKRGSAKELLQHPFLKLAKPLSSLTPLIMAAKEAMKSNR

In the case of `Cc1cc(=O)c2c(O)cc(O)c([C@H]3CCN(C)C[C@H]3O)c2o1` [ROHITUKINE], the Activity [1] is reported as 16%, the Activity [2] is reported as 78% and the Activity [3] is reported as 82%. For the same compound, the Activity [4] was 4%, the Activity [5] was 88% and the Activity [6] was 91%. The Activity [7] was 100%, the Activity [8] was 76% and the GI50 [9] was 26 µM. For the same compound, the Activity [10] was 80%, the Activity [11] was 86% and the GI50 [12] was 21 µM. The Activity [13] was 65%, the Activity [14] was 12% and the Activity [15] was 69%. The GI50 [16] was 20 µM, the GI50 [17] was 19 µM and the Activity [18] was 54%. For the same compound, the logD at 20 min [19] was -0.55, the Activity [20] was 66% and the Activity [21] was 93%. The Activity [22] was 38%, the GI50 [23] was 20 µM and the Activity [24] was 55%. The Activity [25] was 41% and the Activity [26] was 87%.
